Source: patent publication US8759334B2, “Compounds useful for the treatment of metabolic and inflammatory diseases” (Galapagos NV, priority 2011, dated 2014)

Legend:
Format in all cases: cell-based
[1] = target: T1, GPR43 (Homo sapiens, UniProt O15552); assay: Calcium mobilization assay with probenecid; conditions: GPR43 stably expressing cells; triggered with sodium acetate at EC80; 2.5 mM probenecid; read-out: GPR43 assay with probenicid IC50
T1 construct: expressed in transfected cells
T1 sequence (O15552 1-330): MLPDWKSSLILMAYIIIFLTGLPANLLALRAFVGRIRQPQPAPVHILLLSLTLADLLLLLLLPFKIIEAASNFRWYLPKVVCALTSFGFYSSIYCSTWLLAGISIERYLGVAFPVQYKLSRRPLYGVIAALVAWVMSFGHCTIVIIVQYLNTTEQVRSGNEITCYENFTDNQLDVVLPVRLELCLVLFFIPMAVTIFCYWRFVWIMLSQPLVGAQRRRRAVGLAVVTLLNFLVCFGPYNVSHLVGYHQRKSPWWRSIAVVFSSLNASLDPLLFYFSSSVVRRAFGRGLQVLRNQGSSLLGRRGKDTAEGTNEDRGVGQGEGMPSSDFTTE
Outline: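 Cells stably expressing GPR43 plated overnight at 37 °C, then loaded 2 h with Calcium 4 dye plus 2.5 mM probenecid. […]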

[2] = test system: human neutrophils; assay: Neutrophil migration assay; conditions: neutrophils from human buffy coat, migration towards sodium acetate, read-out: human neutrophil migration inhibition EC50
Protocol: G Protein-Coupled Receptor 43 (GPR43) was described as an essential player in the process of neutrophil recruitment during intestinal inflammation.
The effect of agonists or antagonists for GPR43 can therefore be assayed in a neutrophil migration test. In the neutrophil migration assay, neutrophils, isolated from buffy coats from human volunteers, are treated with a compound for 30 minutes. Subsequently, the neutrophils are transferred to the upper wells of a Corning HTS transwell 96 permeable support system, of which the lower wells are filled with a sodium acetate solution.
The ACD buffer consists of 140 mM citric acid, 200 mM sodium citrate and 220 mM dextrose. The 6% dextran/0.9% NaCl solution consists of 15 g dextran T2000 and 2.25 g NaCl dissolved in 250 mL H2O.
A human buffy coat is diluted with an equal volume of ice cold DPBS. 20 mL of the diluted buffy coat is gently mixed with 4 mL of ACD buffer. Then, 12 mL of the 6% dextran/0.9% NaCl solution is added to the mixture and the samples are inverted gently up to 20 times. The total volume is transferred to a new recipient and incubated at room temperature for 1 h for complete separation of the two phases to occur. The yellowish supernatant is then transferred to a clean centrifugation tube and centrifuged for 12 minutes at 1300 rpm and 4° C. After centrifugation, the supernatant is discarded and the remaining cell pellet is rapidly resuspended in 12 mL of ice-cold H2O for red blood cell lysis to occur. After 20 seconds, 4 mL of ice-cold 0.6 M KCl is added. Samples are mixed carefully and centrifuged for 6 minutes at 1300 rpm, 4° C. The supernatant is discarded and the red blood cell lysis procedure is repeated one more time. […] After centrifugation for 12 min at 1300 rpm, 4° C., the supernatant is removed and the cell pellet, containing the neutrophils, is resuspended in 25 mL chemotaxis buffer.
A cell suspension of 8.9×10^6 cells per milliliter is prepared. 20 μL of compound solution in chemotaxis buffer is added to 180 μl cell suspension. The mixture is incubated at 37° C. for 30 minutes with Intermediate resuspension of the cells after 15 minutes. […] The receiver well of the transwell system is then filled with 200 μL chemotaxis buffer containing compound and chemotactic agent (sodium acetate). After incubation at 37° C. in 5% CO2 for 1 h, the upper plate of the transwell system is removed and the cell suspension in the receiver plate is transferred to a 96-well V-bottom plate. 50 μL of DPBS is added to the receiver plate to prevent remaining cells from drying out. The V-bottom plate is centrifuged for 6 minutes at 1500 rpm. The supernatant is removed and the cells are resuspended in 50 μL DPBS. The cells are then transferred back to the receiver plate of the transwell system. […] The plate is incubated for 10 minutes in the dark, while shaking. 170 μL of cell lysate is then transferred to a white 96-well plate and luminescence is measured. The detected luminescent signal is considered as linearly related to the number of migrated cells.

[3] = target: T1, GPR43; assay: Calcium mobilization assay without probenecid; conditions: GPR43 stably expressing cells, triggered with sodium acetate at EC80, read-out: GPR43 assay without probenicid IC50
Outline: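 In GPR43-expressing cells loaded with a Calcium 4 dye, antagonism was tested by a 15 min compound preincubation at 37 °C, then a sodium acetate challenge at EC80, with Ca-flux read on injection. For agonism, Ca-flux was recorded directly on compound injection.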

Row | Compound | IC50 [1] | EC50 [2] | IC50 [3]
1 | CC1(C(=O)N(CC(=O)O)Cc2ccc(Cl)cc2)CCN1C(=O)Cc1csc2ccccc12 (stereo not drawn) [Compound 61, [[1-(2-Benzo[b]thiophen-3-yl-acetyl)-2-methyl-azetidine-2-carbonyl]-(4-chloro-benzyl)-amino]-acetic acid] | 0.01 to 100 nM | 0.01 to 100 nM | 0.01 to 100 nM
2 | CC1(C(=O)N(CCCC(=O)O)Cc2ccc(Cl)cc2)CCN1C(=O)Cc1csc2ccccc12 (stereo not drawn) [Compound 89, 4-[[1-(2-Benzo[b]thiophen-3-yl-acetyl)-2-methyl-azetidine-2-carbonyl]-(4-chloro-benzyl)-amino]-butyric acid] | 0.01 to 100 nM | 0.01 to 100 nM | 0.01 to 100 nM
3 | CN(Cc1ccc(Cl)cc1)C(=O)C1(C)CCN1C(=O)Cc1cn(C)c2ccccc12 (stereo not drawn) [Compound 91, 2-Methyl-1-[2-(1-methyl-1H-indol-3-yl)-acetyl]-azetidine-2-carboxylic acid (4-chloro-benzyl)-methyl-amide] | > 1000 nM | – | > 1000 nM
4 | Cc1cc(C)cc(CC(=O)N2CCC2(C)C(=O)N(CC(=O)NS(=O)(=O)C(F)(F)F)Cc2ccc(Cl)cc2)c1 (stereo not drawn) [Compound 94, 1-[2-(3,5-Dimethyl-phenyl)-acetyl]-2-methyl-azetidine-2-carboxylic acid (4-chloro-benzyl)-(2-oxo-2-trifluoromethanesulfonylamino-ethyl)-amide] | > 1000 nM | – | > 1000 nM
5 | Cc1cc(C)cc(CC(=O)N2CCC2(C)C(=O)N(CC(=O)NS(C)(=O)=O)Cc2ccc(Cl)cc2)c1 (stereo not drawn) [Compound 95, 1-[2-(3,5-Dimethyl-phenyl)-acetyl]-2-methyl-azetidine-2-carboxylic acid (4-chloro-benzyl)-(2-methanesulfonylamino-2-oxo-ethyl)-amide] | > 1000 nM | – | 501 to 1000 nM
6 | Cc1cc(C)cc(CC(=O)N2CCC2(C)C(=O)N(CCCC#N)Cc2ccc(Cl)cc2)c1 (stereo not drawn) [Compound 97, 1-[2-(3,5-Dimethyl-phenyl)-acetyl]-2-methyl-azetidine-2-carboxylic acid (4-chloro-benzyl)-(3-cyano-propyl)-amide] | 501 to 1000 nM | – | 101 to 500 nM
7 | CN(Cc1ccc(Cl)cc1)C(=O)C1(C)CCN1C(=O)c1csc2ccccc12 (stereo not drawn) [Compound 98, 1-(Benzo[b]thiophene-3-carbonyl)-2-methyl-azetidine-2-carboxylic acid (4-chloro-benzyl)-methyl-amide] | 101 to 500 nM | – | 101 to 500 nM
8 | CC1(C(=O)N(CCCc2nnn[nH]2)Cc2ccc(Cl)cc2)CCN1C(=O)Cc1csc2ccccc12 (stereo not drawn) [Compound 100, 1-(2-Benzo[b]thiophen-3-yl-acetyl)-2-methyl-azetidine-2-carboxylic acid (4-chloro-benzyl)-[3-(1H-tetrazol-5-yl)-propyl]-amide] | 0.01 to 100 nM | – | 0.01 to 100 nM
9 | CC(=O)NCCN(Cc1ccc(Cl)cc1)C(=O)C1(C)CCN1C(=O)Cc1cc(C)cc(C)c1 (stereo not drawn) [Compound 101, 1-[2-(3,5-Dimethyl-phenyl)-acetyl]-2-methyl-azetidine-2-carboxylic acid (2-acetylamino-ethyl)-(4-chloro-benzyl)-amide] | 101 to 500 nM | – | 101 to 500 nM
10 | Cc1cc(C)cc(CC(=O)N2CCC2(C)C(=O)N(CCNS(C)(=O)=O)Cc2ccc(Cl)cc2)c1 (stereo not drawn) [Compound 102, 1-[2-(3,5-Dimethyl-phenyl)-acetyl]-2-methyl-azetidine-2-carboxylic acid (4-chloro-benzyl)-(2-methanesulfonylamino-ethyl)-amide] | 101 to 500 nM | – | 501 to 1000 nM
11 | CC1(C(=O)N(CCCC(=O)O)Cc2ccc(Cl)cc2)CCN1C(=O)Cc1coc2ccccc12 (stereo not drawn) [Compound 103, 4-[[1-(2-Benzofuran-3-yl-acetyl)-2-methyl-azetidine-2-carbonyl]-(4-chloro-benzyl)-amino]-butyric acid] | 101 to 500 nM | 501 to 1000 nM | –
12 | Cc1cc(C)cc(CC(=O)N2CCC2(C)C(=O)N(CC(=O)O)Cc2ccc3cn[nH]c3c2)c1 (stereo not drawn) [Compound 110, [{1-[2-(3,5-Dimethyl-phenyl)-acetyl]-2-methyl-azetidine-2-carbonyl}-(1H-indazol-6-ylmethyl)-amino]-acetic acid] | 101 to 500 nM | 101 to 500 nM | –
13 | Cc1cc(C)cc(CC(=O)N2CCC2(C)C(=O)N(CCCC(=O)O)Cc2ccc3cc[nH]c3c2)c1 (stereo not drawn) [Compound 113, 4-[{1-[2-(3,5-Dimethyl-phenyl)-acetyl]-2-methyl-azetidine-2-carbonyl}-(1H-indol-6-ylmethyl)-amino]-butyric acid] | 0.01 to 100 nM | 0.01 to 100 nM | –
14 | Cc1cc(C)cc(CC(=O)N2CCC2(C)C(=O)N(CCCC(=O)N2CCOCC2)Cc2ccc(Cl)cc2)c1 (stereo not drawn) [Compound 122, 1-[2-(3,5-Dimethyl-phenyl)-acetyl]-2-methyl-azetidine-2-carboxylic acid (4-chloro-benzyl)-(4-morpholin-4-yl-4-oxo-butyl)-amide] | 101 to 500 nM | 101 to 500 nM | –
15 | Cc1cc(C)cc(CC(=O)N2CCC2(C)C(=O)N(CCCC(=O)O)Cc2ccc3cn[nH]c3c2)c1 (stereo not drawn) [Compound 123, 4-[{1-[2-(3,5-Dimethyl-phenyl)-acetyl]-2-methyl-azetidine-2-carbonyl}-(1H-indazol-6-ylmethyl)-amino]-butyric acid] | 101 to 500 nM | 0.01 to 100 nM | –
16 | CC1(C(=O)N(CCCC(=O)O)Cc2ccc3cn[nH]c3c2)CCN1C(=O)Cc1csc2ccccc12 (stereo not drawn) [Compound 130, 4-[[1-(2-Benzo[b]thiophen-3-yl-acetyl)-2-methyl-azetidine-2-carbonyl]-(1H-indazol-6-ylmethyl)-amino]-butyric acid] | 0.01 to 100 nM | 101 to 500 nM | –
17 | CC1(C(=O)N(CCCC(=O)O)Cc2ccc3ccoc3c2)CCN1C(=O)Cc1csc2ccccc12 (stereo not drawn) [Compound 131, 4-{[1-(2-Benzo[b]thiophen-3-yl-acetyl)-2-methyl-azetidine-2-carbonyl]-benzofuran-6-ylmethyl-amino}-butyric acid] | 0.01 to 100 nM | 101 to 500 nM | –
18 | Cc1cc(C)cc(CC(=O)N2CCC2(C)C(=O)N(Cc2ccc(Cl)cc2)Cc2cc(O)no2)c1 (stereo not drawn) [Compound 132, 1-[2-(3,5-Dimethyl-phenyl)-acetyl]-2-methyl-azetidine-2-carboxylic acid (4-chloro-benzyl)-(3-hydroxy-isoxazol-5-ylmethyl)-amide] | 0.01 to 100 nM | 101 to 500 nM | –
19 | CC1(C(=O)N(CCCC(=O)O)Cc2ccc3cc[nH]c3c2)CCN1C(=O)Cc1coc2ccccc12 (stereo not drawn) [Compound 137, 4-[[1-(2-Benzofuran-3-yl-acetyl)-2-methyl-azetidine-2-carbonyl]-(1H-indol-6-ylmethyl)-amino]-butyric acid] | 0.01 to 100 nM | 0.01 to 100 nM | –
20 | CC1(C(=O)N(CCCC(=O)O)Cc2ccc3cn[nH]c3c2)CCN1C(=O)c1csc2ccccc12 (stereo not drawn) [Compound 157, 4-[[1-(Benzo[b]thiophene-3-carbonyl)-2-methyl-azetidine-2-carbonyl]-(1H-indazol-6-ylmethyl)-amino]-butyric acid] | 101 to 500 nM | 0.01 to 100 nM | –
